Results published in patent US7528138B2, “Pyrazolo[1,5-a]pyrimidines useful as inhibitors of protein kinases” (Vertex Pharmaceuticals Incorporated, priority 2004, dated 2009).

Assays:
Type in all cases: biochemical
[1] = molecular target: T1, JAK3 (Homo sapiens, UniProt P52333); assay: JAK3 Inhibition Assay, 33P incorporation; conditions: enzyme inhibition data (Ki), Table 11
T1 sequence (P52333 1-1124): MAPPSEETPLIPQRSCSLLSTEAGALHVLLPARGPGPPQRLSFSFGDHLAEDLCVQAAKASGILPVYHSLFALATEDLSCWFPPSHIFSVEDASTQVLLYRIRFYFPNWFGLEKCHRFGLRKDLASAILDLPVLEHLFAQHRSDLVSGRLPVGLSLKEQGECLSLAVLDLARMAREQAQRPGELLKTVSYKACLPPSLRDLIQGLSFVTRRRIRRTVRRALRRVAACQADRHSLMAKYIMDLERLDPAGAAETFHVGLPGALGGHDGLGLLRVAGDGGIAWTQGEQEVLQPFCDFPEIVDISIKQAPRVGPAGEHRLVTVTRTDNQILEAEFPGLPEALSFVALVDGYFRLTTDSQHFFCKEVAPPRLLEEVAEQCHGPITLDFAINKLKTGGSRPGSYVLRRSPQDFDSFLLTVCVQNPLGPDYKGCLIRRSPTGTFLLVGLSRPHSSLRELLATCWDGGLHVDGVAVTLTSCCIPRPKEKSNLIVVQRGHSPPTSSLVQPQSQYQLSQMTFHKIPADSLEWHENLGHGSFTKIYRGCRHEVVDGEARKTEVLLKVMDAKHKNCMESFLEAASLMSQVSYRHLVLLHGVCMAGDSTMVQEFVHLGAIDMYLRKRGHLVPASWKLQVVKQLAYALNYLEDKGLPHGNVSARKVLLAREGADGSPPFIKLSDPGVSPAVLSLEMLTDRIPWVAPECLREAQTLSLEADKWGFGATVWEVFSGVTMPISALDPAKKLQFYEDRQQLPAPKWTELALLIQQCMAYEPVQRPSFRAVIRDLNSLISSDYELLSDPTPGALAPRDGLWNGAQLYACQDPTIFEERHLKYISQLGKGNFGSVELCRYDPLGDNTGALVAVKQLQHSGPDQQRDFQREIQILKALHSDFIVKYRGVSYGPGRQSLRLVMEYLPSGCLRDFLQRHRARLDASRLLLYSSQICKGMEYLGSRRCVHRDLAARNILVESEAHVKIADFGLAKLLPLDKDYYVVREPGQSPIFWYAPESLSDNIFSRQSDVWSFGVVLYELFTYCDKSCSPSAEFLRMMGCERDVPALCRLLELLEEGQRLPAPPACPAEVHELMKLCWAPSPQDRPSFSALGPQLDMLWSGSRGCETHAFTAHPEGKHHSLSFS
Procedure: Reactions are carried out in a kinase buffer containing 100 mM HEPES (pH 7.4), 1 mM DTT, 10 mM MgCl2, 25 mM NaCl, and 0.01% BSA. Substrate concentrations in the assay are 5 μM ATP (200 uCi/μmole ATP) and 1 μM poly(Glu)4Tyr. Reactions are carried out at 25° C. and 1 nM JAK3. To each well of a 96 well polycarbonate plate is added 1.5 μl of a candidate JAK3 inhibitor along with 50 μl of kinase buffer containing 2 μM poly(Glu)4Tyr and 10 μM ATP. This is then mixed and 50 μl of kinase buffer containing 2 nM JAK3 enzyme is added to start the reaction. After 20 minutes at room temperature (25 C), the reaction is stopped with 50 μl of 20% trichloroacetic acid (TCA) that also contained 0.4 mM ATP. The entire contents of each well are then transferred to a 96 well glass fiber filter plate using a TomTek Cell Harvester. After washing, 60 μl of scintillation fluid is added and ^33P incorporation detected on a Perkin Elmer TopCount.

[2] = molecular target: c-Met (Homo sapiens, UniProt P08581); assay: c-Met Inhibition Assay, coupled enzyme system; conditions: enzyme inhibition data (Ki), Table 11
Chain of c-Met (P08581 25-1390): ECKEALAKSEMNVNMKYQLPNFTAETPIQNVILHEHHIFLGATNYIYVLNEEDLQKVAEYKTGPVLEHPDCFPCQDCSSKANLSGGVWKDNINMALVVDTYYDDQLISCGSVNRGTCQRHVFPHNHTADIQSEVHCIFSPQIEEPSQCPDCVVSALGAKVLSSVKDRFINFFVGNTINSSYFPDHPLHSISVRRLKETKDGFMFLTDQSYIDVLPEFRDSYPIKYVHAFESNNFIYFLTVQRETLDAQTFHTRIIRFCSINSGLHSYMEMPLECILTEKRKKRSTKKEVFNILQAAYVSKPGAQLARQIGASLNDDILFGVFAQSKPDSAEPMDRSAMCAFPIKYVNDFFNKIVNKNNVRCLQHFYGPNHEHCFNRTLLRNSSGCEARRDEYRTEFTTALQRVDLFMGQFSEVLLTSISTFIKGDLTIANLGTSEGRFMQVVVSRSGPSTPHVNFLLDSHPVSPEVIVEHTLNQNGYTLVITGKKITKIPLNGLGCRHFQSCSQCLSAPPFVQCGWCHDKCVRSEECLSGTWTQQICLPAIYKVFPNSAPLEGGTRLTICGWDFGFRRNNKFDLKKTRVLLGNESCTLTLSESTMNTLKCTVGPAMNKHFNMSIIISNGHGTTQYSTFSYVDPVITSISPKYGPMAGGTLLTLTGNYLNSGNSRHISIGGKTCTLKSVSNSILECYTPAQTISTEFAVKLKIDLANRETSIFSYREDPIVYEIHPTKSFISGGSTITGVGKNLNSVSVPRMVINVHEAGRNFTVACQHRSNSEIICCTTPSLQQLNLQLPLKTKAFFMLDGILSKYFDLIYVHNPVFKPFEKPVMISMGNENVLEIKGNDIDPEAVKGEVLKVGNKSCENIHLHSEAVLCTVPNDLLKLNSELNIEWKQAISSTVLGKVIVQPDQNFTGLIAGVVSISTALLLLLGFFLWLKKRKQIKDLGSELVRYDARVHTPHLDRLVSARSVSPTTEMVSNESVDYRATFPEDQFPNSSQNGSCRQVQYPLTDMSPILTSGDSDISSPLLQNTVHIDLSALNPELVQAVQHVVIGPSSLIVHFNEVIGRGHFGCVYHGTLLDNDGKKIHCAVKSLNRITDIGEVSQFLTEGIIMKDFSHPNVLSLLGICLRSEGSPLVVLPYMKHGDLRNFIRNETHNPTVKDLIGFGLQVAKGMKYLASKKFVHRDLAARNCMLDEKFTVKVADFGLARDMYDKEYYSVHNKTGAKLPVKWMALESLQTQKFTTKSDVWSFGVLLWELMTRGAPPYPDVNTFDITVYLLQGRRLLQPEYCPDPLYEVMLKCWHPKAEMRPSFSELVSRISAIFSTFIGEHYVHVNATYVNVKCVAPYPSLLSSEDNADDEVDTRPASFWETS
Procedure: Compounds are screened for their ability to inhibit c-Met kinase activity using a standard coupled enzyme system (Fox et al., Protein Sci. 1998, 7, 2249). Reactions are carried out in a solution containing 100 mM HEPES (pH 7.5), 10 mM MgCl2, 25 mM NaCl, 300 μM NADH, 1 mM DTT, and 1.5% DMSO. Final substrate concentrations in the assay are 200 μM ATP (Sigma Chemicals, St Louis, Mo.) and 10 μM polyGluTyr (Sigma Chemical Company, St. Louis). Reactions are carried out at 30° C. and 80 nM c-Met. Final concentrations of the components of the coupled enzyme system are 2.5 mM phosphoenolpyruvate, 300 μM NADH, 30 μg/ml pyruvate kinase and 10 μg/ml lactate dehydrogenase.
An assay stock buffer solution is prepared containing all of the reagents listed above with the exception of ATP and a test compound of the present invention. The assay stock buffer solution (175 μl) is incubated in a 96 well plate with 5 μl of the test compound of the present invention at final concentrations spanning 0.006 μM to 12.5 μM at 30° C. for 10 minutes. Typically, a 12-point titration is conducted by preparing serial dilutions (from 10 mM compound stocks) with DMSO of the test compounds of the present invention in daughter plates. The reaction is initiated by the addition of 20 μl of ATP (final concentration 200 μM). Rates of reaction are obtained using a Molecular Devices Spectramax plate reader (Sunnyvale, Calif.) over 10 minutes at 30° C. The Ki values are determined from the rate data as a function of inhibitor concentration.

[3] = molecular target: T2, Itk (Homo sapiens, UniProt Q08881); assay: ITK Inhibition Assay (Radiometric), radioactive-phosphate incorporation; conditions: enzyme inhibition data (Ki), Table 11; radiometric or UV assay not stated
T2 sequence (Q08881 1-620): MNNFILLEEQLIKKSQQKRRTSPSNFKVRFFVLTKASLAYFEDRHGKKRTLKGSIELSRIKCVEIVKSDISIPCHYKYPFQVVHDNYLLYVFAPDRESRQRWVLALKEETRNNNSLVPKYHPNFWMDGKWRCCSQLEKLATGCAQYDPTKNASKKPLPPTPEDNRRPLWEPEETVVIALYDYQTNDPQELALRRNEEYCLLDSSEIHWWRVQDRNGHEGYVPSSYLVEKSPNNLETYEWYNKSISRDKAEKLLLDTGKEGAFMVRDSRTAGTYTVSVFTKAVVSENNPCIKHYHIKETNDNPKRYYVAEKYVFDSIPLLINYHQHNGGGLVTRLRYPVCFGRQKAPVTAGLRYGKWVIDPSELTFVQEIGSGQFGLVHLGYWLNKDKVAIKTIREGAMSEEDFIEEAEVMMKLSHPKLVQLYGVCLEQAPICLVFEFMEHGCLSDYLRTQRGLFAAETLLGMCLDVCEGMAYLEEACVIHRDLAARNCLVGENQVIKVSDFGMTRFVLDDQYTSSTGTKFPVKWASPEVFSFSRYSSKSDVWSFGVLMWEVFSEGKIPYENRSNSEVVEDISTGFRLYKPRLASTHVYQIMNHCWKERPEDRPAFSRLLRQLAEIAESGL
Procedure: Assays are carried out in a mixture of 20 mM MOPS (pH 7.0), 10 mM MgCl2, 0.1% BSA and 1 mM DTT. Final substrate concentrations in the assay are 7.5 μM [γ-33P]ATP (400 mCi 33P ATP/mmol ATP, Amersham Pharmacia Biotech/Sigma Chemicals) and 3 μM peptide (SAM68 protein D332-443). Assays are carried out at 25° C. in the presence of 50 nM Itk. An assay stock buffer solution is prepared containing all of the reagents listed above, with the exception of ATP and the test compound of interest. 50 μL of the stock solution is placed in a 96 well plate followed by addition of 2 μL of DMSO stock containing serial dilutions of the test compound (typically starting from a final concentration of 50 μM with 2-fold serial dilutions) in duplicate (final DMSO concentration 2%). The plate is pre-incubated for 10 minutes at 25° C. and the reaction initiated by addition of 50 μL [γ-33P]ATP (final concentration 7.5 μM).
The reaction is stopped after 10 minutes by the addition of […] 0.2M phosphoric acid+0.01% TWEEN 20. A multiscreen phosphocellulose filter 96-well plate (Millipore, Cat no. MAPHN0B50) is pretreated with 100 μL 0.2M phosphoric acid +0.01% TWEEN 20 prior to the addition of […] of the stopped assay mixture. The plate is washed with 4×200 μL 0.2M phosphoric acid+0.01% TWEEN 20. After drying, 30 μL Optiphase ‘SuperMix’ liquid scintillation cocktail (Perkin Elmer) is added to the well prior to scintillation counting (1450 Microbeta Liquid Scintillation Counter, Wallac).
Ki(app) data are calculated from non-linear regression analysis of the initial rate data using the Prism software package (GraphPad Prism version 3.0cx for Macintosh, GraphPad Software, San Diego Calif., USA).

| Ki [1] | Ki [2] | Ki [3] | Compound |
| --- | --- | --- | --- |
| > 5 µM | 0.5 to 5 µM | 0.5 to 5 µM | Nc1nn2cc(CCCNC3CCCCC3)cnc2c1-c1ccccn1 [Compound V-323] |
| > 5 µM | 0.5 to 5 µM | 0.5 to 5 µM | CC(C)CN(C)CCCc1cnc2c(-c3ccccn3)c(N)nn2c1 [Compound V-317] |
| 0.5 to 5 µM | < 0.5 µM | < 0.5 µM | Cc1cnc2c(-c3cc(N[C@H](CO)CC(C)C)ncn3)c(N)nn2c1 [Compound V-298] |
| > 5 µM | 0.5 to 5 µM | 0.5 to 5 µM | CC(C)N1CCN(CCCc2cnc3c(-c4ccccn4)c(N)nn3c2)CC1 [Compound V-331] |
| 0.5 to 5 µM | < 0.5 µM | < 0.5 µM | CCCN(CCCN)C(=O)c1cccc(-c2cnc3c(-c4ccccn4)c(N)nn3c2)n1 [Compound V-122] |
| > 5 µM | 0.5 to 5 µM | 0.5 to 5 µM | Cc1ccc(-c2cnc3c(-c4ccccc4Br)c(N)nn3c2)cc1 [Compound V-31] |
| > 5 µM | 0.5 to 5 µM | 0.5 to 5 µM | Nc1nn2cc(-c3ccncc3)cnc2c1-c1cccc(NCCC2=CCCCC2)n1 [Compound V-138] |
| 0.5 to 5 µM | < 0.5 µM | < 0.5 µM | Nc1nn2cc(-c3ccc(C(=O)N4CCC[C@@H]4CN4CCCC4)cn3)cnc2c1-c1ccccn1 [Compound V-153] |
| > 5 µM | < 0.5 µM | 0.5 to 5 µM | COCCCN1CCN(C(=O)c2cccc(-c3cnc4c(-c5ccccn5)c(N)nn4c3)n2)CC1 [Compound V-117] |

The next lines start with the molecule.

| Compound | Ki [1] | Ki [2] | Ki [3] |
| --- | --- | --- | --- |
| CN(C)c1ccc(CNC(=O)c2c(N)nn3cc(-c4ccncn4)cnc23)cc1 [Compound V-43] | > 5 µM | 0.5 to 5 µM | 0.5 to 5 µM |
| Cc1cnc2c(-c3cc(N4CCCC(CO)C4)ncn3)c(N)nn2c1 (stereo not drawn) [Compound V-340] | 0.5 to 5 µM | < 0.5 µM | 0.5 to 5 µM |
| CCN1CCN(CCCc2cnc3c(-c4ccccn4)c(N)nn3c2)CC1 [Compound V-315] | > 5 µM | 0.5 to 5 µM | 0.5 to 5 µM |
| Cc1cnc2c(-c3cc(NC4CCN(C)CC4)ncn3)c(N)nn2c1 [Compound V-284] | 0.5 to 5 µM | < 0.5 µM | 0.5 to 5 µM |
| Nc1nn2cc(CCCO)cnc2c1-c1ccccn1 [Compound V-310] | > 5 µM | 0.5 to 5 µM | 0.5 to 5 µM |
| Nc1nn2cc(-c3cccc(C(=O)N4CCC4)n3)cnc2c1-c1ccccn1 [Compound V-123] | > 5 µM | < 0.5 µM | 0.5 to 5 µM |
| CCC(CO)Nc1cc(-c2c(N)nn3cc(C)cnc23)ncn1 (stereo not drawn) [Compound V-288] | 0.5 to 5 µM | < 0.5 µM | < 0.5 µM |
| Nc1nn2cc(-c3ccnc(N4CCC(N5CCCC5)CC4)c3)cnc2c1-c1ccccn1 [Compound V-256] | > 5 µM | 0.5 to 5 µM | 0.5 to 5 µM |
| CCN(C)c1ccc(-c2cnc3c(-c4ccccn4)c(N)nn3c2)cn1 [Compound V-171] | > 5 µM | < 0.5 µM | 0.5 to 5 µM |
| CC(C)CN(C)c1ccc(-c2cnc3c(-c4ccccn4)c(N)nn3c2)cn1 [Compound V-172] | > 5 µM | 0.5 to 5 µM | 0.5 to 5 µM |
| CCc1ccccc1-c1cnc2c(-c3ccccn3)c(N)nn2c1 [Compound V-9] | > 5 µM | 0.5 to 5 µM | 0.5 to 5 µM |
| CCOC(=O)N1CCN(c2ccc(-c3cnc4c(-c5ccccn5)c(N)nn4c3)cn2)CC1 [Compound V-174] | > 5 µM | 0.5 to 5 µM | 0.5 to 5 µM |
| COc1ccc(-c2cnc3c(N)c(N)nn3c2)cc1 [Compound V-240] | > 5 µM | 0.5 to 5 µM | 0.5 to 5 µM |
| CN1CCN(c2ccc(-c3cnc4c(-c5ccccn5)c(N)nn4c3)cn2)CC1 [Compound V-145] | > 5 µM | < 0.5 µM | < 0.5 µM |
| Nc1nn2cc(-c3cccnc3N3CCC(CCO)CC3)cnc2c1-c1ccccn1 [Compound V-271] | > 5 µM | 0.5 to 5 µM | 0.5 to 5 µM |
| Nc1nn2cc(-c3ccc(NCCCC4=NCC=N4)nc3)cnc2c1-c1ccccn1 [Compound V-161] | > 5 µM | < 0.5 µM | 0.5 to 5 µM |
| Nc1nn2cc(-c3cccc(C(=O)N4CCC(CCO)CC4)n3)cnc2c1-c1ccccn1 [Compound V-141] | > 5 µM | < 0.5 µM | 0.5 to 5 µM |
